Test [1] concerns the target T1, rNPFF-1 (Rattus norvegicus, UniProt Q9EP86).
T1 construct: expressed in transfected cells
The experiment in a line: Radioligand binding assay, competitive displacement of [125I]1DMeNPFF at cloned NPFF receptors. As to conditions: cloned rat receptor. (In general: Displacement assays read how much labelled ligand stays bound in the presence of the test substance.)

In test [2] the target is T1, rNPFF-1. Briefly: Functional activity (EC50 and intrinsic activity relative to NPFF). It counts as cell-based. As to conditions: for Functional Activity rNPFF-1 I.A. %: intrinsic activity as percentage of maximal response by NPFF; for EC50: tested 0.001 nM to 3600 nM.
Source text: (§1) The data shown are representative of at least two independent experiments.
Test [3] addresses T2, rNPFF-2 (Rattus norvegicus, UniProt Q9EQD2).
T2 construct: expressed in transfected cells
The test is described as above. The format is cell-based. As to conditions: for Functional Activity rNPFF-2 I.A. %: intrinsic activity as percentage of maximal response by NPFF; for EC50: tested 0.001 nM to 3600 nM, read-out: Functional Activity rNPFF-2 EC50.
Source text: as §1

Test [4] addresses T2, rNPFF-2. The experiment in a line: Radioligand binding assay, competitive displacement of [125I]1DMeNPFF at cloned NPFF receptors. The note with it: cloned rat receptor.

T1 sequence (Q9EP86 whole entry): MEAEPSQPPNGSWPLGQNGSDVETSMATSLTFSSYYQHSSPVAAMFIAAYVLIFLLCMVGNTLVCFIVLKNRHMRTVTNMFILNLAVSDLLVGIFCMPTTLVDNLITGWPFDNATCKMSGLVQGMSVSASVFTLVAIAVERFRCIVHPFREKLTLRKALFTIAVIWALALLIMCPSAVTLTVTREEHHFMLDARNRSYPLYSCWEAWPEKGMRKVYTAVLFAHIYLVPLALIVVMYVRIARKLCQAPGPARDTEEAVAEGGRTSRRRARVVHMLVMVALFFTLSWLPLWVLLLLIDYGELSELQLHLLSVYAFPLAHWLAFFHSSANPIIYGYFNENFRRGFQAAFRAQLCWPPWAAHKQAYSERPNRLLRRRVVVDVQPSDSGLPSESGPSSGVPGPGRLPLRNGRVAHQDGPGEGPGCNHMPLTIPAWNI
T2 sequence (Q9EQD2 whole entry): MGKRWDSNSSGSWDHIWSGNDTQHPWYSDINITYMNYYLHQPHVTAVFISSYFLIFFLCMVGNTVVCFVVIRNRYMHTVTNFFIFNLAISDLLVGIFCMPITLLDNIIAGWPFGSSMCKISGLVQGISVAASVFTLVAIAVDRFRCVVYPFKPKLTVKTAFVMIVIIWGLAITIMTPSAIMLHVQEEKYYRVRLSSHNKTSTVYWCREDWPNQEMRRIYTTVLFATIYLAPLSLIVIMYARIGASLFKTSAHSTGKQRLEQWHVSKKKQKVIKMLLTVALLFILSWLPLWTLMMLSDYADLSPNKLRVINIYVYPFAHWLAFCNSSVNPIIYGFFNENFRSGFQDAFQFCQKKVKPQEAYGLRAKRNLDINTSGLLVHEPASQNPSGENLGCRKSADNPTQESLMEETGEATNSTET

Broadly, the Ki is a dissociation constant, usually derived from enzyme kinetics or from competition with a known ligand. A lower Ki goes with higher affinity. In general, EC50 refers to the concentration giving half of the maximal effect. Consider `N=C(N)NCCC[C@H](NS(=O)(=O)c1c(F)cccc1F)C(=O)N[C@@H](Cc1ccccc1)C(N)=O` [Compound 1004], for which the figures for the Ki at rNPFF-1 [1] and on rNPFF-2 [4] were 173 nM and 1450 nM, respectively. Moreover, on rNPFF-1 [2], the “Functional Activity rNPFF-1 I.A. %” value is listed as 79%. For the same compound, the midpoint of the response at rNPFF-1 [2], the EC50, lay at 117 nM. Also, on rNPFF-2 [3], the “Functional Activity rNPFF-2 I.A. %” value was found to be 43%.
Take `Cc1ccc(S(=O)(=O)N[C@@H](CCCNC(=N)N)C(=O)N[C@@H](Cc2ccccc2)C(N)=O)cc1` [Compound 1007]: affinity at rNPFF-1 [1] was put at a Ki of 756 nM. At rNPFF-1 [2], the “Functional Activity rNPFF-1 I.A. %” value turned out to be 79% and a half-maximal response (EC50) required 286 nM. In addition, on rNPFF-2 [3], the “Functional Activity rNPFF-2 I.A. %” value is reported as 55% and the EC50 is 2300 nM. Also, at rNPFF-2 [4], the Ki was found to be 3080 nM.
`N=C(N)NCCC[C@H](NS(=O)(=O)c1ccc(C(F)(F)F)cc1[N+](=O)[O-])C(=O)N[C@@H](Cc1ccccc1)C(N)=O` [Compound 1018] showed a Ki at rNPFF-1 [1] of 1950 nM. Also, on rNPFF-1 [2], the “Functional Activity rNPFF-1 I.A. %” value is listed as 21% and the EC50 was greater than 3160 nM. Further, at rNPFF-2 [3], the “Functional Activity rNPFF-2 I.A. %” value turned out to be 10% and the EC50 amounted to 5620 nM. The compound also had a Ki on rNPFF-2 [4] of 4430 nM.
With `N=C(N)NCCC[C@H](NS(=O)(=O)c1ccc2ccccc2c1)C(=O)N[C@H](Cc1ccccc1)C(N)=O` [Compound 1029], the Ki on rNPFF-1 [1] turned out to be 399 nM; on rNPFF-2 [4] it was 2690 nM. At rNPFF-1 [2], the “Functional Activity rNPFF-1 I.A. %” value is on record as 30%. Besides, the EC50 is 477 nM on rNPFF-1 [2] and greater than 3160 nM on rNPFF-2 [3]. For the same compound, on rNPFF-2 [3], the “Functional Activity rNPFF-2 I.A. %” value turned out to be 86%.
With `N=C(N)NCCC[C@H](NS(=O)(=O)c1ccc(F)c(Cl)c1)C(=O)N[C@@H](Cc1ccccc1)C(N)=O` [Compound 1017], the values for the Ki on rNPFF-1 [1] and on rNPFF-2 [4] were 1140 nM and 3560 nM, respectively. Also, the “Functional Activity rNPFF-1 I.A. %” value on rNPFF-1 [2] came out at 84%. Further, the results for the EC50 at rNPFF-1 [2] and at rNPFF-2 [3] were 376 nM and greater than 3160 nM, respectively. Besides, the “Functional Activity rNPFF-2 I.A. %” value on rNPFF-2 [3] worked out at 45%.
Regarding `N=C(N)NCCC[C@@H](NS(=O)(=O)c1ccc(F)cc1)C(=O)N[C@@H](Cc1ccccc1)C(N)=O` [Compound 1028], the figures for the Ki at rNPFF-1 [1] and on rNPFF-2 [4] were 1280 nM and 8060 nM, respectively. The EC50 at rNPFF-1 [2] was determined as 404 nM; at rNPFF-2 [3] it was 1580 nM. For the same compound, on rNPFF-2 [3], the “Functional Activity rNPFF-2 I.A. %” value is 62%.
For `COc1ccc(S(=O)(=O)N[C@@H](CCCNC(=N)N)C(=O)N[C@@H](Cc2ccccc2)C(N)=O)cc1` [Compound 1009], the Ki at rNPFF-1 [1] turned out to be 321 nM; at rNPFF-2 [4] it was 1090 nM.
The compound `N=C(N)NCCC[C@H](NS(=O)(=O)c1c(F)c(F)c(F)c(F)c1F)C(=O)N[C@@H](Cc1ccccc1)C(N)=O` [Compound 1024] returned a Ki at rNPFF-1 [1] of 486 nM. Further, on rNPFF-1 [2], the “Functional Activity rNPFF-1 I.A. %” value came out at 69% and a half-maximal effect (EC50) was put at 720 nM. Moreover, at rNPFF-2 [3], the “Functional Activity rNPFF-2 I.A. %” value is 43% and the EC50 is greater than 3160 nM. In addition, affinity on rNPFF-2 [4] was put at a Ki of 5400 nM.
`N=C(N)NCCC[C@H](NS(=O)(=O)c1ccc(Cl)c(Cl)c1)C(=O)N[C@@H](Cc1ccccc1)C(N)=O` [Compound 1022]: at rNPFF-1 [2], the “Functional Activity rNPFF-1 I.A. %” value came out at 86% and the response was half-maximal at 1860 nM (EC50). For the same compound, at rNPFF-2 [3], the “Functional Activity rNPFF-2 I.A. %” value was 34% and the EC50 was greater than 3160 nM.
Take `COc1ccc(C)cc1S(=O)(=O)N[C@@H](CCCNC(=N)N)C(=O)N[C@@H](Cc1ccccc1)C(N)=O` [Compound 2003]: on rNPFF-1 [2], the “Functional Activity rNPFF-1 I.A. %” value was 102%. For the same compound, on rNPFF-2 [3], the “Functional Activity rNPFF-2 I.A. %” value is 52% and the EC50 is greater than 3160 nM. The Ki at rNPFF-2 [4] is greater than 10000 nM.
Consider `N=C(N)NCCC[C@@H](NS(=O)(=O)c1ccccc1Br)C(=O)N[C@@H](Cc1ccccc1)C(N)=O` [Compound 1030], for which the “Functional Activity rNPFF-2 I.A. %” value on rNPFF-2 [3] came out at 71%.
Consider `N=C(N)NCCC[C@H](NS(=O)(=O)c1ccccc1Br)C(=O)N[C@@H](Cc1ccccc1)C(N)=O` [Compound 2001], for which the “Functional Activity rNPFF-2 I.A. %” value at rNPFF-2 [3] was 09%.

These data come from patent publication US20030144310A1 (priority 2001, published 2003).
